Patent US20100260737A1, “COMBINATION BETWEEN AN ISOTHIOCYANATE AND LEVODOPA FOR PARKINSON'S DISEASE TREATMENT” (priority 2007, published 2010)

What was measured:
[1] = system: neurons; conditions: prolonged SUL treatment, in vitro; cited from earlier work
[2] = preliminary phase I study (Shapiro et al. 2006); cited from earlier work
[3] = system: SH-SY5Y cells; assay: L-DOPA-induced neurotoxicity, pulse/chase treatment, Annexin-V/propidium iodide double staining
[4] = system: SH-SY5Y cells; assay: H2O2-induced neuronal apoptosis after pre-treatment; assay type: cell-based; conditions: for toxic effects in SH-SY5Y cells: SUL 0.63 μM, L-DOPA 25 μM
Experimental: It was also evaluated whether the combination could have synergistic effects against neuronal apoptosis induced by H2O2, an oxidant agent in the CNS. In particular, apoptosis is measured 15 h later than 3 h treatment with H2O2 (300 μM).

Row | Structure (SMILES) | effect against 1 methyl-4-phenyl-1,2,3,6-tetrahydropyridine [1] | protection of neurons against 6-hydroxydopamine [1] | protection of neurons against H2O2 damage [1] | toxicity in humans [2] | L-DOPA-induced apoptosis, post-treatment ([3]; SUL 2.5 μM added after L-DOPA (400 μM) treatment, FIG. 3) | L-DOPA-induced apoptosis, co-treatment ([3]; SUL 0.63-2.5 μM co-treated with L-DOPA 400 μM, FIG. 2) | toxic effects in SH-SY5Y cells [4] | H2O2-induced apoptosis after L-DOPA pre-treatment ([4]; pre-treatment 24 h, L-DOPA 25-100 μM tested, effect at more than 50 μM, H2O2 300 μM 3 h, read 15 h later, FIG. 4)
1 | C[S+]([O-])CCCCN=C=S (stereo not drawn) [SUL, 4-(methylsulfinyl)butyl isothiocyanate] | does not show any effect | protects neurons | protects neurons | absence of toxicity | significant decrease of apoptosis | dose-dependent inhibitory effect | did not show any toxic effects | 
2 | N[C@@H](Cc1ccc(O)c(O)c1)C(=O)O [L-DOPA, 3,4-dihydroxyphenylalanine] |  |  |  |  |  |  | did not show any toxic effects | significantly decreased H2O2-induced apoptosis
